Measurements reported in PMC7281298, “Exploring Kinase Inhibition Properties of 9H-pyrimido[5,4-b]- and [4,5-b]indol-4-amine Derivatives” (Pharmaceuticals, 2020).
Where two headings read alike, the source gives them in different places.

Tests used:
GSK-3α/β = assay: Kinase inhibition assay, GSK-3α/β; assay type: biochemical; conditions: for IC50: average of triplicate determination (<10% variation), read-out: Kinase inhibitory potency (IC50) GSK-3α/β
Procedure: (§1) The inhibitory potency of the synthesized pyrimido[4,5-b]indol-4-amines and pyrimido[5,4-b]indol-4-amines towards CDK5/p25, CK1δ/ε, DYRK1A, and GSK-3α/β was investigated according preceding procedures.
(§2) Buffers, kinase preparations, and assays were performed as described in ref. [12, 13, 14] according methods initially published in previous works.

CK1δ/ε [1] = assay: Kinase inhibition assay, CK1δ/ε; assay type: biochemical; conditions: for IC50: average of triplicate determination (<10% variation), read-out: Kinase inhibitory potency (IC50) CK1δ/ε
Procedure: as §1, §2

CDK5/p25 = CDK5/p25 (Homo sapiens, UniProt Q00535); assay: Kinase inhibition assay, CDK5/p25; assay type: biochemical; conditions: for IC50: average of triplicate determination (<10% variation), read-out: Kinase inhibitory potency (IC50) CDK5/p25
Procedure: as §1, §2

DYRK1A [2] = target: T1, DYRK1A (Homo sapiens, UniProt Q13627); assay: Kinase inhibition assay, DYRK1A; assay type: biochemical; conditions: for IC50: read-out: Kinase inhibitory potency (IC50) DYRK1A
Procedure: as §1, §2

CK1δ/ε [3] = tested on: CK1δ/ε; set-up: method as in PMID 23237976, PMID 23124214, PMID 25549552; conditions: already published data, cited from earlier work; for IC50: thieno[2,3-d]pyrimidin-4-amine congeners
DYRK1A [4] = target: T1, DYRK1A; set-up: method as in PMID 23237976, PMID 23124214, PMID 25549552; conditions: thieno[2,3-d]pyrimidin-4-amine congeners, already published data; cited from earlier work
[5] = average of triplicate determination (<10% variation)

CDK5/p25, sequence (Q00535 whole entry, species assumed): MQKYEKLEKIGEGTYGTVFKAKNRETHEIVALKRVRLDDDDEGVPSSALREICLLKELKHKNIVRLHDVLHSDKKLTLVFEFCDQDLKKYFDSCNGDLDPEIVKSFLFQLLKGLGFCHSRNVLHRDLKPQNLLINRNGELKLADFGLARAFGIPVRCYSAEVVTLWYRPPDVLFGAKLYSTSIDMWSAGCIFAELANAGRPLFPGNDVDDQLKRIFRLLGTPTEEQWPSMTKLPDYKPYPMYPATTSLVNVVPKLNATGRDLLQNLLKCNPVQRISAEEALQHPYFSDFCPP
CDK5/p25, sequence (Q15078 99-307 partner limits assumed, species assumed): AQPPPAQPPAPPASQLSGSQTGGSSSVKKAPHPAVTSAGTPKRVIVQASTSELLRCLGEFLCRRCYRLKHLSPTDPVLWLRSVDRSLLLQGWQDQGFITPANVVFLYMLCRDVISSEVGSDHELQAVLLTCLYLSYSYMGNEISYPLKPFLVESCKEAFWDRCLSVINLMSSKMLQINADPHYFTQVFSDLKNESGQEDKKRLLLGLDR

| Compound | Inhibitory activity against GSK3α/β (in words) (GSK-3α/β) | IC50 (GSK-3α/β) [µM] | Inhibitory activity against CK1δ/ε (in words) (CK1δ/ε [1]) | IC50 (CK1δ/ε [1]) [µM] | Inhibitory activity against CDK5/p25 (in words) (CDK5/p25) | IC50 (CDK5/p25) [µM] | Inhibitory activity against DYRK1A (in words) (DYRK1A [2]) | IC50 (DYRK1A [2]; [5]) [µM] | IC50 (CK1δ/ε [3]) [µM] | IC50 (DYRK1A [4]) [µM] | Activity against CK1 (in words) (CK1δ/ε [3]) | IC50 (DYRK1A [2]) [µM] |
| --- | --- | --- | --- | --- | --- | --- | --- | --- | --- | --- | --- | --- |
| COc1ccc2c3ccnc(C)c3n(C)c2c1 [Compound 11b, 7-Methoxy-1,9-dimethyl-β-carboline] | totally inactive | > 10 | totally inactive | > 10 | totally inactive | > 10 | – | – | – | – | – | – |
| Nc1ncnc2c3ccccc3n(Cc3ccccc3)c12 [Compound 1d, 5-Benzyl-5H-pyrimido[5,4-b]indol-4-amine] | – | > 10 | – | 0.6 | – | > 10 | lack of activity | > 10 | – | – | – | – |
| Nc1ncnc2c1sc1ccccc12 [Compound 12] | – | – | – | – | – | – | – | – | 0.79 | 33 | – | – |
| Nc1ncnc2c1sc1cccnc12 [Compound 14] | – | – | – | – | – | – | – | – | 1.8 | 6 | micromolar and submicromolar activity | – |
| COc1ccc2c(c1)[nH]c1c(C)nccc12 [Compound 11a, harmine, reference compound] | definitely inactive | > 10 | – | 1.5 | definitely inactive | – | – | – | – | – | – | – |
| CCn1c2ccccc2c2ncnc(N)c21 [Compound 1c, 5-Ethyl-5H-pyrimido[5,4-b]indol-4-amine] | – | > 10 | – | 2.8 | – | > 10 | – | 4.1 | – | – | – | – |
| Nc1ncnc2c1c1ccc([N+](=O)[O-])cc1n2Cc1ccccc1 [Compound 4d, 9-Benzyl-7-nitro-9H-pyrimido[4,5-b]indol-4-amine] | – | > 10 | – | > 10 | – | > 10 | – | > 10 | – | – | – | – |
| Nc1ncnc2c1sc1nccnc12 [Compound 13] | – | – | – | – | – | – | – | – | 2.4 | > 10 | micromolar and submicromolar activity | – |
| Nc1ncnc2c3cc([N+](=O)[O-])ccc3n(Cc3ccccc3)c12 [Compound 2d, 5-Benzyl-8-nitro-5H-pyrimido[5,4-b]indol-4-amine] | – | > 10 | – | > 10 | – | > 10 | – | > 10 | – | – | – | – |
| Cn1c2cc([N+](=O)[O-])ccc2c2c(N)ncnc21 [Compound 4b, 9-Methyl-7-nitro-9H-pyrimido[4,5-b]indol-4-amine] | – | > 10 | – | 2.8 | – | > 10 | – | > 10 | – | – | – | – |
| Nc1ncnc2c1[nH]c1ccc([N+](=O)[O-])cc12 [Compound 2a, 8-Nitro-5H-pyrimido[5,4-b]indol-4-amine] | – | > 10 | no inhibition | > 10 | – | > 10 | low micromolar activity | 7.6 | – | – | – | – |
| COc1ccc2c3ccnc(C)c3n(Cc3ccccc3)c2c1 [Compound 11d, 9-Benzyl-7-methoxy-1-methyl-β-carboline] | totally inactive | > 10 | totally inactive | > 10 | totally inactive | > 10 | – | 0.059 | – | – | – | – |
| Nc1ncnc2c1[nH]c1ccccc12 [Compound 1a, 5H-Pyrimido[5,4-b]indol-4-amine] | – | > 10 | – | 2 | – | > 10 | – | 2.2 | – | – | – | – |
| Nc1ncnc2c1c1ccccc1n2Cc1ccccc1 [Compound 3d, 9-Benzyl-9H-pyrimido[4,5-b]indol-4-amine] | – | > 10 | – | 2.7 | – | > 10 | – | > 10 | – | – | – | – |
| Cn1c2ccccc2c2ncnc(N)c21 [Compound 1b, 5-Methyl-5H-pyrimido[5,4-b]indol-4-amine] | – | > 10 | – | 4 | – | > 10 | – | 5.8 | – | – | – | – |
| Nc1ncnc2[nH]c3cc([N+](=O)[O-])ccc3c12 [Compound 4a, 7-Nitro-9H-pyrimido[4,5-b]indol-4-amine] | – | > 10 | – | 3.5 | – | > 10 | – | 7.6 | – | – | – | – |
| Cn1c2ccccc2c2c(N)ncnc21 [Compound 3b, 9-Methyl-9H-pyrimido[4,5-b]indol-4-amine] | – | > 10 | – | 2.5 | – | > 10 | – | > 10 | – | – | – | – |
| CCn1c2ccc([N+](=O)[O-])cc2c2ncnc(N)c21 [Compound 2c, 5-Ethyl-8-nitro-5H-pyrimido[5,4-b]indol-4-amine] | – | > 10 | – | > 10 | – | > 10 | – | > 10 | – | – | – | – |
| CCn1c2cc([N+](=O)[O-])ccc2c2c(N)ncnc21 [Compound 4c, 9-Ethyl-7-nitro-9H-pyrimido[4,5-b]indol-4-amine] | – | > 10 | – | 1.6 | – | > 10 | – | 5.9 | – | – | – | – |
| CCn1c2cc(OC)ccc2c2ccnc(C)c21 [Compound 11c, 9-Ethyl-7-methoxy-1-methyl-β-carboline] | totally inactive | > 10 | totally inactive | > 10 | totally inactive | > 10 | – | – | – | – | – | 0.037 |
| CCn1c2ccccc2c2c(N)ncnc21 [Compound 3c, 9-Ethyl-9H-pyrimido[4,5-b]indol-4-amine] | – | > 10 | – | 1.6 | – | > 10 | – | 9.8 | – | – | – | – |
| Nc1ncnc2[nH]c3ccccc3c12 [Compound 3a, 9H-Pyrimido[4,5-b]indol-4-amine] | – | > 10 | – | 0.7 | – | 6 | – | 3.1 | – | – | – | – |
| Nc1ncnc2c1sc1ncccc12 [Compound 15] | – | – | – | – | – | – | – | – | 0.031 | > 10 | micromolar and submicromolar activity | – |
| Cn1c2ccc([N+](=O)[O-])cc2c2ncnc(N)c21 [Compound 2b, 5-Methyl-8-nitro-5H-pyrimido[5,4-b]indol-4-amine] | – | > 10 | – | > 10 | – | > 10 | – | > 10 | – | – | – | – |
